Measured values reported in the supplement of paper PMC11451515.

Tested on: NOMO1
Assay: cell viability relative to DMSO control; higher = less cytotoxic
Settings: 48 h
In short: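 Viability is expressed as a percentage of DMSO wells within each plate, and cell-free wells serve as background. Seeding densities in the 1536-well plates (5 μl) were 500 cells/well for NOMO1 or SEM leukemia cells and 1000 cells/well for P12-Ichikawa. Each line was adapted for at least four passages in each medium. Library compounds in DMSO were pin-dosed at 47 μM to 0.79 nM (11 points, threefold), and CellTiter-Glo One luminescence was read after 48 h at 37°C.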

[1] = HPLM + 10% dialyzed FBS, 0.000781 µM
[2] = HPLM + 10% dialyzed FBS, 0.00234 µM
[3] = HPLM + 10% dialyzed FBS, 0.00702 µM
[4] = HPLM + 10% dialyzed FBS, 0.0211 µM
[5] = HPLM + 10% dialyzed FBS, 0.0632 µM
[6] = HPLM + 10% dialyzed FBS, 0.19 µM
[7] = HPLM + 10% dialyzed FBS, 0.569 µM
[8] = HPLM + 10% dialyzed FBS, 1.71 µM
[9] = HPLM + 10% dialyzed FBS, 5.12 µM
[10] = HPLM + 10% dialyzed FBS, 15.4 µM
[11] = HPLM + 10% dialyzed FBS, 46.1 µM
[12] = RPMI 5 mM glucose + 10% FBS, 0.000781 µM
[13] = RPMI 5 mM glucose + 10% FBS, 0.00234 µM
[14] = RPMI 5 mM glucose + 10% FBS, 0.00702 µM
[15] = RPMI 5 mM glucose + 10% FBS, 0.0211 µM
[16] = RPMI 5 mM glucose + 10% FBS, 0.0632 µM
[17] = RPMI 5 mM glucose + 10% FBS, 0.19 µM
[18] = RPMI 5 mM glucose + 10% FBS, 0.569 µM
[19] = RPMI 5 mM glucose + 10% FBS, 1.71 µM
[20] = RPMI 5 mM glucose + 10% FBS, 5.12 µM
[21] = RPMI 5 mM glucose + 10% FBS, 15.4 µM
[22] = RPMI 5 mM glucose + 10% FBS, 46.1 µM
[23] = RPMI 5 mM glucose + 10% dialyzed FBS, 0.000781 µM
[24] = RPMI 5 mM glucose + 10% dialyzed FBS, 0.00234 µM
[25] = RPMI 5 mM glucose + 10% dialyzed FBS, 0.00702 µM
[26] = RPMI 5 mM glucose + 10% dialyzed FBS, 0.0211 µM
[27] = RPMI 5 mM glucose + 10% dialyzed FBS, 0.0632 µM
[28] = RPMI 5 mM glucose + 10% dialyzed FBS, 0.19 µM
[29] = RPMI 5 mM glucose + 10% dialyzed FBS, 0.569 µM
[30] = RPMI 5 mM glucose + 10% dialyzed FBS, 1.71 µM
[31] = RPMI 5 mM glucose + 10% dialyzed FBS, 5.12 µM
[32] = RPMI 5 mM glucose + 10% dialyzed FBS, 15.4 µM
[33] = RPMI 5 mM glucose + 10% dialyzed FBS, 46.1 µM

SMILES | cell viability [1] | cell viability [2] | cell viability [3] | cell viability [4] | cell viability [5] | cell viability [6] | cell viability [7] | cell viability [8] | cell viability [9] | cell viability [10] | cell viability [11] | cell viability [12] | cell viability [13] | cell viability [14] | cell viability [15] | cell viability [16] | cell viability [17] | cell viability [18] | cell viability [19] | cell viability [20] | cell viability [21] | cell viability [22] | cell viability [23] | cell viability [24] | cell viability [25] | cell viability [26] | cell viability [27] | cell viability [28] | cell viability [29] | cell viability [30] | cell viability [31] | cell viability [32] | cell viability [33]
CC(C)C[C@H](CC(=O)O)C(=O)N[C@@H](Cc1c[nH]c2ccccc12)C(=O)N[C@@H](C)c1ccccc1 | 122% | 114% | 124% | 112% | 109% | 123% | 104% | 116% | 95.9% | 60.9% | 37.3% | 91.3% | 93.9% | 105% | 103% | 109% | 109% | 107% | 107% | 105% | 74.8% | 29.5% | 104% | 115% | 105% | 105% | 114% | 114% | 116% | 127% | 113% | 113% | 56.6%
CC(C)[C@H]1C(=O)N[C@H](CO)Cc2c[nH]c3cccc(c23)N1C | 104% | 98.3% | 106% | 111% | 125% | 128% | 112% | 75.8% | 50.6% | 47.2% | 45% | 96.2% | 103% | 112% | 104% | 111% | 119% | 99.7% | 77.7% | 67.9% | 51.1% | 46.7% | 81.7% | 94.4% | 93.2% | 93.2% | 97.5% | 120% | 100% | 69.5% | 71.1% | 56% | 47.4%
C[C@]12CC[C@H]3[C@@H](CC[C@@]45O[C@@H]4C(O)=C(C#N)C[C@]35C)[C@@H]1CC[C@@H]2O | 102% | 111% | 118% | 112% | 123% | 111% | 110% | 116% | 97.2% | 109% | 21.2% | 111% | 119% | 117% | 127% | 117% | 119% | 128% | 118% | 117% | 117% | 30.7% | 110% | 121% | 127% | 132% | 143% | 132% | 128% | 135% | 136% | 125% | 24.3%
CC1=CC/2=C(C=C1C)N(C[C@@H](O)[C@@H](O)[C@@H](O)CO)C/3=N/C(=O)NC(=O)C3=N2 | 130% | 119% | 119% | 115% | 124% | 135% | 139% | 125% | 89.1% | 127% | 46.2% | 108% | 108% | 116% | 118% | 116% | 117% | 110% | 120% | 108% | 111% | 98.5% | 113% | 126% | 113% | 123% | 126% | 123% | 128% | 123% | 108% | 107% | 90.1%
Clc1ccc(CCC(Cn2ccnc2)Sc2c(Cl)cccc2Cl)cc1 (centres undefined) | 87.3% | 85.2% | 98% | 103% | 107% | 90.8% | 98.5% | 87% | 93.9% | 93.6% | 90.4% | 77.8% | 80.1% | 86.7% | 83.4% | 89.2% | 88.2% | 86.9% | 85.5% | 85.5% | 81.7% | 79.8% | 87.5% | 83.4% | 94.1% | 89.5% | 95.2% | 94.7% | 90.1% | 96.2% | 83.8% | 102% | 70.7%
COC(=O)CCC1=C(C)C2=CC3=NC(=CC4=C(C)C(=C([NH]4)C=C\5N=C(C=C1[NH]2)\C(=C5C)CCC(O)=O)C=C)\C6=C\C=C(/[C@@H](C(=O)OC)[C@@]36C)C(=O)OC | 95.4% | 94.3% | 91.5% | 91.9% | 92.6% | 97% | 103% | 80.3% | 78.6% | 38.9% | 14.1% | 86.6% | 89.3% | 91.9% | 97.5% | 116% | 109% | 101% | 102% | 101% | 55.2% | 14.5% | 85.4% | 99% | 87% | 98.4% | 88% | 90.8% | 93.7% | 86.6% | 94.9% | 45.7% | 18.4%
CCOC(=O)c1c(CSc2ccccc2)n(C)c2cc(Br)c(O)c(CN(C)C)c12 | 129% | 121% | 114% | 133% | 127% | 128% | 130% | 120% | 128% | 120% | 104% |  |  |  |  |  |  |  |  |  |  |  | 119% | 119% | 124% | 129% | 114% | 124% | 124% | 129% | 108% | 92.8% | 69.1%
O=C1\C=C(OC2=C(C=CC=C12)C3=CC=CC4=C3SC5=C4C=CC=C5)\N6CCOCC6 | 123% | 123% | 129% | 128% | 135% | 121% | 135% | 133% | 114% | 132% | 112% |  |  |  |  |  |  |  |  |  |  |  | 113% | 121% | 125% | 131% | 128% | 129% | 133% | 136% | 116% | 117% | 107%
O=C(CCCN1CCC(O)(c2ccc(Cl)cc2)CC1)c1ccc(F)cc1 | 115% | 119% | 108% | 111% | 114% | 133% | 135% | 129% | 126% | 110% | 91.7% | 95.3% | 106% | 101% | 109% | 128% | 117% | 110% | 119% | 102% | 110% | 82.1% | 115% | 121% | 114% | 110% | 125% | 115% | 120% | 116% | 122% | 117% | 82.5%
Cc1nnc(C(C)C)n1[C@@H]1C[C@H]2CC[C@@H](C1)N2CC[C@H](NC(=O)C1CCC(F)(F)CC1)c1ccccc1 | 70.8% | 93.7% | 112% | 93.1% | 98.7% | 103% | 107% | 104% | 103% | 84.5% | 25.5% | 83.6% | 82.9% | 95.2% | 91.3% | 84.5% | 99.9% | 92% | 88.5% | 84.3% | 91.3% | 26.3% | 68.3% | 93.2% | 82.6% | 84.8% | 93.2% | 95.5% | 95.1% | 90.3% | 84.4% | 67.1% | 29.9%
O=C1c2ccccc2-c2n[nH]c3cccc1c23 | 109% | 131% | 103% | 111% | 123% | 120% | 92.5% | 122% | 102% | 53.6% | 28.3% | 90.6% | 105% | 110% | 113% | 102% | 127% | 113% | 107% | 117% | 53.7% | 18.2% | 101% | 107% | 98.3% | 114% | 116% | 115% | 120% | 108% | 94.2% | 94.9% | 23.9%
O=C(O)c1cccc(-c2noc(-c3ccccc3F)n2)c1 | 106% | 111% | 100% | 133% | 112% | 121% | 109% | 107% | 110% | 96.8% | 101% | 86.3% | 90.6% | 106% | 103% | 86.2% | 98% | 99.6% | 94.7% | 94.2% | 91.9% | 89.9% | 93.2% | 101% | 101% | 95.2% | 96.6% | 98.9% | 112% | 95.8% | 103% | 87.8% | 81.3%
CC(=O)N(O)CCCCCNC(=O)CCC(=O)N(O)CCCCCNC(=O)CCC(=O)N(O)CCCCCN.C[S+](=O)([O-])O | 90.9% | 83.7% | 81.8% | 32.6% | 34% | 34.6% | 28.3% | 27.2% | 27.7% | 23.6% | 21.5% | 88.8% | 97.4% | 115% | 45.7% | 28.1% | 17.6% | 24.9% | 20.9% | 16.4% | 10.6% | 12.5% | 86% | 105% | 113% | 106% | 79.1% | 26.3% | 26.4% | 21.4% | 23.8% | 18.2% | 17.4%
Nc1ncnc2nc(-c3ccc(N4CCOCC4)nc3)cc(-c3cccc(Br)c3)c12 |  |  |  |  |  |  |  |  |  |  |  | 108% | 107% | 116% | 121% | 111% | 118% | 122% | 115% | 114% | 106% | 107% | 108% | 127% | 121% | 111% | 106% | 120% | 110% | 117% | 116% | 106% | 120%
Cc1nc2ccc(CN(C)c3ccc(C(=O)N[C@@H](CCC(=O)O)C(=O)O)s3)cc2c(=O)[nH]1 | 110% | 120% | 101% | 111% | 99% | 53.3% | 46% | 44.8% | 41.6% | 41.6% | 38.7% | 120% | 113% | 105% | 112% | 100% | 114% | 94.5% | 72.2% | 71.8% | 75.7% | 73.1% | 116% | 109% | 104% | 120% | 108% | 70.9% | 37.6% | 25.6% | 33% | 33.1% | 32.1%
NC(=O)c1nnn(Cc2cc(Cl)c(C(=O)c3ccc(Cl)cc3)c(Cl)c2)c1N | 111% | 134% | 124% | 127% | 120% | 137% | 124% | 135% | 111% | 120% | 78.7% | 121% | 123% | 129% | 124% | 122% | 123% | 123% | 105% | 110% | 114% | 103% |  |  |  |  |  |  |  |  |  |  | 
